pKi: −log10 of the molar value.
Tests used:
Format in all cases: biochemical
IKKα = target: T1, IKKα (Homo sapiens, UniProt O15111); assay: DELFIA kinase assay, IKKα; settings: for pKi: DELFIA kinase assay; for Selectivity for IKKα over IKKβ: ratio of Ki IKKβ to Ki IKKα
T1 sequence (O15111 1-745): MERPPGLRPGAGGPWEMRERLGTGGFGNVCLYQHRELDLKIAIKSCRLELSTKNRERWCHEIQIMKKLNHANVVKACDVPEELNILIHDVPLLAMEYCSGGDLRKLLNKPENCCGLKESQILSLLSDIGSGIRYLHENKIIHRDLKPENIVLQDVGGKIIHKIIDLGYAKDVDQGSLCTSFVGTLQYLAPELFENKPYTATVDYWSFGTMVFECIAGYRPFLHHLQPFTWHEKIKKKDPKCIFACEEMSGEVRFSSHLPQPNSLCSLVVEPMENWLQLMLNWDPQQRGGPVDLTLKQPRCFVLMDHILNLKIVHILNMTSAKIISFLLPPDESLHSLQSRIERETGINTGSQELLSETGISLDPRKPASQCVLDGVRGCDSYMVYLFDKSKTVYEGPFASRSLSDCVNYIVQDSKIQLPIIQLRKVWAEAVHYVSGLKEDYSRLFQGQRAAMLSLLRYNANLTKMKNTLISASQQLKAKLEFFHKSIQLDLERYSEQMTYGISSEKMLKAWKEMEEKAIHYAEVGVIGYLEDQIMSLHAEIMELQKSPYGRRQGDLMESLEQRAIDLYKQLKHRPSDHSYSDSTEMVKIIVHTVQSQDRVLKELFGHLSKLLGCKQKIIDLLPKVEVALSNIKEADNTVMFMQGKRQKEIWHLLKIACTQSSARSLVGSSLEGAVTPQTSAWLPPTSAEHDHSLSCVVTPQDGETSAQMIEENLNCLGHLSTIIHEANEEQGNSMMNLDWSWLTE
Excerpt: To examine the pyrrolo[2,3-b]pyridines as an alternative scaffold, we adopted the AIPP core because it had similar dimensions to SU909 (1), with HBD/HBA motifs positioned at the scaffold extremities to interact with both the hinge region and the G-loop wall of IKKα, a rationale we had previously proposed as the basis for imparting selectivity. A preliminary set of AIPP derivatives was designed and synthesised to explore its utility as an IKK-targeting scaffold, whilst incorporating additional functionality through which to introduce selectivity for the IKKα isoform (2–4; Figure 3). This was achieved by initially adopting two different approaches: either appending a hydrophobic moiety to the pyrrolo[2,3-b]pyridine motif as a fused form to afford the tricyclic derivatives 2 and 3, or as a phenyl substituent to introduce flexibility with respect to the central pyrrolo[2,3-b]pyridine moiety in 4. When assessed against IKKα and IKKβ using our in-house DELFIA kinase assay […] The pyrrolo[2,3-b]pyridine was bound to the hinge region in the classical HBA/HBD motif with the GK+3 amide backbone, whilst the aminoindazole projected towards the top of the pocket to interact with the G-loop (Figure 4A). […] In both isoforms, the 2-phenyl moiety protruded away from the hinge towards the exposed solvent area.
IKKα and IKKβ inhibitory activity were determined using a dissociation-enhanced ligand fluorescent immunoassay (DELFIA) based on the protocol of HTScan™ IKKβ Kinase Assay (Cell Signaling Technology, Danvers, MA, USA) as described in [24].

CK1δ(h) = CK1δ(h) (Homo sapiens, UniProt P48730); assay: kinase panel
CK1δ(h), sequence (P48730 whole entry): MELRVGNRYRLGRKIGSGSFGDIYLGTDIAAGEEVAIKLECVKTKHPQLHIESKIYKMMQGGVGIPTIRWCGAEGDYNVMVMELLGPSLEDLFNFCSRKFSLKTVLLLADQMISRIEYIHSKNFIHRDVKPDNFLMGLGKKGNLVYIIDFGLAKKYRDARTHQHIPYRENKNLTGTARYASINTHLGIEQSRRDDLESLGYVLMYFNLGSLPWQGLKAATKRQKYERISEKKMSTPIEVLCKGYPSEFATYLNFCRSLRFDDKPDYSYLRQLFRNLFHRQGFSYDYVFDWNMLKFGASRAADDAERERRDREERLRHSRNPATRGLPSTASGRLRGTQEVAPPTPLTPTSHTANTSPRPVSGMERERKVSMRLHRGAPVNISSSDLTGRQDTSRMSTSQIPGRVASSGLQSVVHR
Procedure, shortened: (§1)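 Values are percent inhibition from kinome-wide profiling of three series compounds across 231 kinases, with a structurally similar analogue tested on only 98 selected kinases.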

PKCα(h) = PKCα(h) (Homo sapiens, UniProt P17252); assay: kinase panel
Procedure, shortened: as §1

CDK2/cyclinE(h) = CDK2/cyclinE(h) (Homo sapiens, UniProt P24941); assay: kinase panel
Procedure, shortened: as §1

CDK5/p25(h) = CDK5/p25(h) (Homo sapiens, UniProt Q00535); assay: kinase panel
CDK5/p25(h), sequence (Q00535 whole entry): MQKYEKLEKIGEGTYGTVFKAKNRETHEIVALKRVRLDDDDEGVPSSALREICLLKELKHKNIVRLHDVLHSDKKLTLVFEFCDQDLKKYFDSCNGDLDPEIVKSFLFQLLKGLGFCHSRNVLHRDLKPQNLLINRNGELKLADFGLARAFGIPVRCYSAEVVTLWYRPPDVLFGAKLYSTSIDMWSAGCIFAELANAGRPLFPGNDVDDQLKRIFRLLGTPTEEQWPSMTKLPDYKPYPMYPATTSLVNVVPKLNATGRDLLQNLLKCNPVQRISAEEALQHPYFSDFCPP
CDK5/p25(h), sequence (Q15078 99-307 partner limits assumed): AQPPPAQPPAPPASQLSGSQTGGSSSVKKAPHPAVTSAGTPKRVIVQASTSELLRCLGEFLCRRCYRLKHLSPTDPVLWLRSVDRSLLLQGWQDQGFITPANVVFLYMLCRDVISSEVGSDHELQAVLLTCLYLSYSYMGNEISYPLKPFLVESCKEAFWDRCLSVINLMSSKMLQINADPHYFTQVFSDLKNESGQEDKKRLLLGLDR
Procedure, shortened: as §1

MEK1(h) = MEK1(h) (Homo sapiens, UniProt Q02750); assay: kinase panel
MEK1(h), sequence (Q02750 whole entry): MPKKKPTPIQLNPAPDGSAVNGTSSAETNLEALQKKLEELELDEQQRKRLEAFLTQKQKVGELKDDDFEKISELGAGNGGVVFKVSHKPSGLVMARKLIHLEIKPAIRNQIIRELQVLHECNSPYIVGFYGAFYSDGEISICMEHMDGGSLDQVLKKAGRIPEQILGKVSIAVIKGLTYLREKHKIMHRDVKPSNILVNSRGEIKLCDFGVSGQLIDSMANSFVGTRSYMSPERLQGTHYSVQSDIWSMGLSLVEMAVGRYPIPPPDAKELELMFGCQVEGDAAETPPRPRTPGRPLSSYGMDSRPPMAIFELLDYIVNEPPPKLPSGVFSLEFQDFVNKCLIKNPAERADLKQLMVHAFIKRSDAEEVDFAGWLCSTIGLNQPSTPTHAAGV
Procedure, shortened: as §1

Ret(h) = Ret(h) (Homo sapiens, UniProt P07949); assay: kinase panel
Ret(h), sequence (P07949 29-1114): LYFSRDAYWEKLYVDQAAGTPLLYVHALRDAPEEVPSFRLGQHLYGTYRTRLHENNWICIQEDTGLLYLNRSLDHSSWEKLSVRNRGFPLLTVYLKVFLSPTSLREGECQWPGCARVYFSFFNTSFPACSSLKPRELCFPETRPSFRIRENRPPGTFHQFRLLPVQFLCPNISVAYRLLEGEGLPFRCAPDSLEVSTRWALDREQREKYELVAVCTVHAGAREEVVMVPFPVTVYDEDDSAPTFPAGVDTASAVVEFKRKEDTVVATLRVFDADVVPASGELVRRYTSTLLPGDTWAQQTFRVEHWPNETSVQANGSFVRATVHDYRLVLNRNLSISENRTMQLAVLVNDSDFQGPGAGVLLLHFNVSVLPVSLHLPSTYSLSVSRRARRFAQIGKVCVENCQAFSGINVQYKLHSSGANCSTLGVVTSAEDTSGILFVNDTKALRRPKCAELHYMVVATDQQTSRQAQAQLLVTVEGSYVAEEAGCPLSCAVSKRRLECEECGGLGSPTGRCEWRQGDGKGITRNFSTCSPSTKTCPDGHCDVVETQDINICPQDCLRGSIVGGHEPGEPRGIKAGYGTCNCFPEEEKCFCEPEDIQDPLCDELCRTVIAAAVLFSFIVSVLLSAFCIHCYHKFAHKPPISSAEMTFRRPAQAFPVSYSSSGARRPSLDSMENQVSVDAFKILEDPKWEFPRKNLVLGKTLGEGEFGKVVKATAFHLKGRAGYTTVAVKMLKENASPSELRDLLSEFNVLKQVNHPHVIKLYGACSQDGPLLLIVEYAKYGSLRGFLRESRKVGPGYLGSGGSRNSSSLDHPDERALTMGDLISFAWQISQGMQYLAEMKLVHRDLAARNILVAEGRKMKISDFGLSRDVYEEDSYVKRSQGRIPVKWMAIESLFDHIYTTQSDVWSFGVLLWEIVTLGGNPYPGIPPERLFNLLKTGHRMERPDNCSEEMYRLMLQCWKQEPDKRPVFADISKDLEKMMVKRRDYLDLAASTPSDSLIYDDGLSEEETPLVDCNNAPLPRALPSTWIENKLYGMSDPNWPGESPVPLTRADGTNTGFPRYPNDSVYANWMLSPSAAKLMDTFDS
Procedure, shortened: as §1

MSK1(h) = MSK1(h) (Homo sapiens, UniProt O75582); assay: kinase panel
MSK1(h), sequence (O75582 whole entry): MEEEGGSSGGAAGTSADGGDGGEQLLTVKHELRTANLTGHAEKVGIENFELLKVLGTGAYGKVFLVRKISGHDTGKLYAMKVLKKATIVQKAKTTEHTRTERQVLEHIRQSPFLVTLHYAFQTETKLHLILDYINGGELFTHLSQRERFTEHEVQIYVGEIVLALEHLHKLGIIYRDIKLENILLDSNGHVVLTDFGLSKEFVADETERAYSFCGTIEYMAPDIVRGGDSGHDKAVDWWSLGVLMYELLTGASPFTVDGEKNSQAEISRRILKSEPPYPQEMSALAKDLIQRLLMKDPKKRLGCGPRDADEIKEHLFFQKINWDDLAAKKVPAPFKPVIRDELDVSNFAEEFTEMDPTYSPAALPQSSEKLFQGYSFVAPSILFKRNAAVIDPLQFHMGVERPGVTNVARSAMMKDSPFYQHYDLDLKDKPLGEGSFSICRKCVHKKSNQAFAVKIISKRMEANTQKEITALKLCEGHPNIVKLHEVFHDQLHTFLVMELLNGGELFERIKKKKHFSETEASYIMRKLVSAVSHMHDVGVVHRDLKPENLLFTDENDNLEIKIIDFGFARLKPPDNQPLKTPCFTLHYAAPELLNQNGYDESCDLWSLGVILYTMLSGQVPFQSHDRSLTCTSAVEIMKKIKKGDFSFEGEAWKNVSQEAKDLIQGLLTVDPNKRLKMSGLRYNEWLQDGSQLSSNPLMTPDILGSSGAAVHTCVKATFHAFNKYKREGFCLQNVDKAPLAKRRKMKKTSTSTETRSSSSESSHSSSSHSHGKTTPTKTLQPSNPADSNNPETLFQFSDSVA
Procedure, shortened: as §1

CaMKIIβ(h) = CaMKIIβ(h) (Homo sapiens, UniProt Q13554); assay: kinase panel
CaMKIIβ(h), sequence (Q13554 whole entry): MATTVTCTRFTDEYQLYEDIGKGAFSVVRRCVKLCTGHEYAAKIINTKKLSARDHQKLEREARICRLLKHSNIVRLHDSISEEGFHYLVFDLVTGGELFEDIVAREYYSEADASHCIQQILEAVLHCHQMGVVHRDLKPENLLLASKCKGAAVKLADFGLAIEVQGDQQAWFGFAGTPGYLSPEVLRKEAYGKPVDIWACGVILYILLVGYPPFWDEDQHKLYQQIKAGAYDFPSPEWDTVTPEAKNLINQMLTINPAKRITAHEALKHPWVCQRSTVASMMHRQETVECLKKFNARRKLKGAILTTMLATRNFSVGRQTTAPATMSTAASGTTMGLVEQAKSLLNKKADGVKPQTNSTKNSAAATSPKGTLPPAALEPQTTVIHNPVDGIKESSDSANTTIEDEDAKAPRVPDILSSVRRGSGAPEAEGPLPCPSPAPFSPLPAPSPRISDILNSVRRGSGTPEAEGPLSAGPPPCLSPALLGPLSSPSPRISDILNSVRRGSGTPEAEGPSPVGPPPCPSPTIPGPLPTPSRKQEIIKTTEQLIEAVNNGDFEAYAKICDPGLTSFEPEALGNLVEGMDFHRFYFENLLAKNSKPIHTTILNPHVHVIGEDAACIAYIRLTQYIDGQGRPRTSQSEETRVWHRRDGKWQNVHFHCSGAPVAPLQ
Procedure, shortened: as §1

MKK7β(h) = target: T2, MKK7β(h) (Homo sapiens, UniProt O14733); assay: kinase panel
T2 sequence (O14733 1-419): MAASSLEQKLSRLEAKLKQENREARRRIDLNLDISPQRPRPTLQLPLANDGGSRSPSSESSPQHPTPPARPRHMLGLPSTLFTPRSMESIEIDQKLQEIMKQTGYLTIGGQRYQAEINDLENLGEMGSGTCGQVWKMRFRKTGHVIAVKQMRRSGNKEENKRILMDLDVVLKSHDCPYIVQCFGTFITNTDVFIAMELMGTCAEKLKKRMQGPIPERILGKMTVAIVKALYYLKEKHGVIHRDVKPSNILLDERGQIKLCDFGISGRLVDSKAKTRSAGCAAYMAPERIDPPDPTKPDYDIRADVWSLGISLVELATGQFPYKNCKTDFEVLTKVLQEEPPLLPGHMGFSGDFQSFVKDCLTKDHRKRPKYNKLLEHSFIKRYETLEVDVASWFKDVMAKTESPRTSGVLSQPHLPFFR
Procedure, shortened: as §1

CDK3/cyclinE(h) = CDK3/cyclinE(h) (Homo sapiens, UniProt Q00526); assay: kinase panel
Procedure, shortened: as §1

Row | SMILES | pKi (IKKα) | inhibition at 1 µM (CK1δ(h)) [%] | inhibition at 1 µM (PKCα(h)) [%] | inhibition at 1 µM (CDK2/cyclinE(h)) [%] | inhibition at 1 µM (CDK5/p25(h)) [%] | inhibition at 1 µM (MEK1(h)) [%] | inhibition at 1 µM (Ret(h)) [%] | inhibition at 1 µM (MSK1(h)) [%] | inhibition at 1 µM (CaMKIIβ(h)) [%] | inhibition at 1 µM (MKK7β(h)) [%] | inhibition at 1 µM (CDK3/cyclinE(h)) [%] | Selectivity for IKKα over IKKβ (IKKα; listed as 6g [SU1349]) [fold] | Selectivity for IKKα over IKKβ (IKKα; listed as SU1349) [fold]
1 | Nc1n[nH]c2ccc(-c3ccnc4[nH]c(-c5cccc(OCc6ccccc6)c5)cc34)cc12 [Compound 5r [SU1261]] | 8.00 | 14 | 23 | 37 | 96 | 0 | 41 | -24 | 47 | 99 | 45 | – | –
2 | Nc1n[nH]c2ccc(-c3ccnc4[nH]c(-c5ccnc(OCc6ccccc6)c5)cc34)cc12 [Compound 6g [SU1349]] | 7.80 | 5 | -1 | 29 | 92 | 8 | -3 | -4 | 12 | 11 | 37 | 209 | 209.5
3 | Nc1n[nH]c2ccc(-c3ccnc4[nH]c(-c5ccccc5)cc34)cc12 [Compound 4] | 8.52 | 58 | 5 | 86 | 101 | 8 | 52 | -2 | 74 | 80 | 94 | – | –
